Data published in patent publication US10005731B2, “Modulators of the retinoid-related orphan receptor gamma (ROR-gamma) for use in the treatment of autoimmune and inflammatory diseases” (Glaxo Group Limited, priority 2012, dated 2018).
Read-outs that look alike come from different tables or passages of the source.

Assays:
RORγ = biological target: T1, RORγ (Homo sapiens, UniProt P51449); assay: Jurkat cell luciferase assay (human IL17 promoter reporter, RORγt overexpression); format: cell-based; conditions: mean pIC50; detection limit of the assay 5
T1 construct: expressed in transfected cells
T1 sequence (P51449 1-497 isoform P51449-2): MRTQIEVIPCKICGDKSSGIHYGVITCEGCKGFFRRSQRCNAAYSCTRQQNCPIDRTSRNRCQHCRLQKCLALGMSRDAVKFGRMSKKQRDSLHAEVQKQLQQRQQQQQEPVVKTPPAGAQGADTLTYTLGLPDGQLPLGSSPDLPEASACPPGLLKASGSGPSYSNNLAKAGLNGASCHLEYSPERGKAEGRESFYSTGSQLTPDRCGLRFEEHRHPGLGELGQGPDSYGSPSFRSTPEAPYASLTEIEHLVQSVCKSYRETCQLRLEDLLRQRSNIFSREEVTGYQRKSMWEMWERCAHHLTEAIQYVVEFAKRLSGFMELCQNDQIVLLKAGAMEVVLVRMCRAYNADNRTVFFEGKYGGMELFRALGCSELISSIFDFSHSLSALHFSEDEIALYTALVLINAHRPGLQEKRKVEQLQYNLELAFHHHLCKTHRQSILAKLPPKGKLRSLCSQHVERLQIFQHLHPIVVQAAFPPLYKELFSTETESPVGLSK
From the text: RORγ is known to bind to a CNS (conserved non-coding sequences) enhancer element in the IL17 promoter. In this assay, RORγ activity is indirectly assessed using a luciferase reporter construct which contains the human IL17 promoter having the RORγ-specific CNS enhancer element. Inhibition of RORγ activity by a compound will result in a decrease in luciferase activity of Jurkat cells transfected with the reporter construct.
. For the 1.1 Kb fragment, PCR was used to amplify human IL17 proximal promoter region from genomic DNA of 293T cells using primers as follows: forward primer, 5′-[…]-3′ (SEQ ID NO. 4) (Xhol site is underlined) and reverse primer, 5′-[…]-3′ SEQ ID NO. 5) (HindIII site is underlined). The 1.1 kb DNA bands were excised, purified, and inserted into pMD19-T Simple Vector (Takara). After DNA sequencing confirmation, the 1.1 kb DNA was digested with XhoI and HindIII and inserted into XhoI/HindIII sites of pGL4.31[luc2P/GAL4UAS/Hygro] (Promega) to generate the pIL17-lkb-luc reporter construct. For the 1.9 Kb fragment, PCR was used to amplify human IL17 promoter region from genomic DNA using primers as follows: forward primer, 5′-[…]-3′ (SEQ ID NO. 6) (KpnI site is underlined) and reverse primer, 5′-[…]-3′ (SEQ ID NO. 7)(XhoI site is underlined). The resulting 1.9 kb DNA bands were excised, gel purified, and cloned into a pMD19-T Simple Vector (Takara). […] The 1.9 kb DNA fragment was released by double digestion with KpnI and XhoI and inserted into pIL17-lkb-luc to generate the luciferase reporter plasmid “pIL17-3kb-CNS-luc.” To overexpress RORγt, the full-length cDNA of human RORγt identical to the published sequence NM13 001001523 was cloned into pcDNA3.1 at the KpnI-NotI cloning sites to generate the RORγt overexpression plasmid “CDNA3.1DhRORγ49-8”. […]
Compounds were dissolved in DMSO at three concentrations, 10 mM, 400 uM and 16 uM, and were dispensed into 384-wells assay plate at 40 nl, 12.5 nl, 5 nl respectively. The volume was adjusted with pure DMSO to a give a final uniform volume of 40 nl Jurkat cells described above were counted and centrifuged. […]

Mouse CD4+ cells = assay: Th17 cell differentiation assay (IL-17 ELISA); format: cell-based; conditions: table with percutaneous study
Method: Mouse CD4+cells were purified using the CD4+ T Cell Isolation II Kit according to manufacturer's instructions (Miltenyi Biotec). 96 well plates were pre-coated with anti-mCD3 antibody. Un-coated wells were used as controls. CD4+ Cells were resuspended in RPMI 1640 complete medium and were added to the 96-well plates. Cytokine cocktail and the compound were then added to the wells. Antibodies and cytokines (all from R&D Systems) used in the assay were selected from the following: anti-mCD3; anti-mCD28; anti-mIFNγ; anti-mIL4; mIL-6; mIL-23; mIL-1β; hTGF-β1. The culture was incubated at 37° C. for 3 days and supernatants were collected for ELISA. The IL-17 ELISAs were performed according to manufacturer's instructions (R&D Systems). The results were analyzed using Prism software with non-linear regression to determine pIC50.

[1] = In vitro percutaneous study (Franz diffusion cells, aqueous cream); format: in vitro ADME, human; conditions: 1.0% w/w in aqueous cream pH=6, 5 mg/cm^2, human skin from three donors
From the text: The in vitro percutaneous study is aimed to predict the level of percutaneous penetration obtained for a compound in a topical formulation for psoriasis. This assay coupled with the intrinsic potency of the compound are used to predict the likelihood of success of a compound to engage the target. The higher the ratio of the percutaneous penetration to the intrinsic potency, the higher the ratio of local skin concentration to the intrinsic potency and therefore the higher the chance of a compound to engage the target in a topical formulation.
The compounds were manufactured in a modified aqueous cream at pH=6.
The study was conducted with dermatomed abdominal human skin sourced from three skin donors using 2 cm2 Franz diffusion cells. The receiving fluid consisted of Bovine serum albumin (4% w/v) in 0.1% w/v sodium azide in Phospate Buffer Saline and was heated at 37° C. in order to obtain 32° C. at the skin surface. The cream formulation was applied on the donor side at a 10 mg dose, i.e. 5 mg/cm^2. The samples taken at the following time points: t=0, 3, 6, 9 and 24 h. The receiver samples were then assayed using a method based upon protein precipitation with acetonitrile followed by LC/MS/MS analysis. The percutaneous flux (in ng/cm^2/hr) was determined using the individual API (in a multiple composition) that had permeated into the receiver compartment over 24 hrs per cm^2.

**Q.** For `Cc1cnc(C(=O)Nc2cc(F)cc(CN3CCN(C(=O)C4CCCC4)[C@@H](C)C3)c2C)cn1` [Example 36, (S)-N-(3-((4-(cyclopentanecarbonyl)-3-methylpiperazin-1-yl)methyl)-5-fluoro-2-methylphenyl)-5-methylpyrazine-2-carboxamide], which IC50 (RORγ) is on record?
**A.** > 10000 nM

**Q.** With `Cc1ccc(C(=O)Nc2cc(F)cc(CN3CCN(C(=O)CC4CCC4)[C@@H](C)C3)c2C)cn1` [Example 163, (S)-N-(3-((4-(2-cyclobutylacetyl)-3-methylpiperazin-1-yl)methyl)-5-fluoro-2-methylphenyl)-6-methylnicotinamide] as the compound, how does the IC50 (Mouse CD4+ cells; read-out: Th17 cell differentiation assay IC50) read?
**A.** 0.0114 µg/mL

**Q.** And the IC50 (Mouse CD4+ cells; read-out: Th17 cell differentiation assay pIC50 (converted))?
**A.** 25.1 nM

**Q.** And the “Flux over 24 hrs” value [1]?
**A.** 7.73 ng/cm^2/hr
